# What was measured:
# [1] = test system: pZap70, pSlp76 and pLAT in Jurkat cells; test: induction of pZap70, pSlp76 and pLAT in Jurkat cells (Western blotting); type: cell-based, human
# Description: (§1) Jurkat cells in culture medium (3×10^6 cells/ml, 1 ml/tube) were treated with agents for designated times at room temperature. After brief centrifuging in a microfuge (4,000 rpm, 2 min), the cell pellet was lysed on ice for 30 min in 100 μl of cold lysis buffer (1% NP40, 50 mM Tris, pH 7.4, 150 mM NaCl, 20 mM NaF, 0.2 mM Na3VO4 and 1 mM Na3MO4) containing a cocktail of proteinase inhibitors (Sigma, 1 tablet/10 ml). The lysates were cleared by centrifuging (14,000 rpm, 10 min) in a microfuge at 4° C. to remove insoluble parts, mixed with equal volume of 2×SDS-PAGE sample buffer, boiled for 5 min and analyzed (˜3×10^5 cells/well) by SDS-PAGE/Western blotting. Relative intensities of phosphotyrosine bands were quantified through densitometry analysis.
# Jurkat cells in culture medium (3×10^6 cells/ml, 1 ml/tube) were treated with agents for designated times at room temperature. […] The lysates were cleared by centrifuging (14,000 rpm, 10 min) in a microfuge at 4° C. to remove insoluble parts, mixed with equal volume of 2×SDS-PAGE sample buffer, boiled for 5 min and analyzed (˜3×10^5 cells/well) by SDS-PAGE/Western blotting as described previously (17, 18). Relative intensities of phosphotyrosine bands were quantified through densitometry analysis.
# [2] = test system: IFNγ+ cells in mouse splenocytes; test: induction of IFNγ+ cells in mouse splenocytes in vitro (ELISPOT); type: cell-based; settings: for increase of IFNγ+ cells in splenocytes: 16 hrs (FIG. 5A)
# Description: The splenocytes were cultured in RPMI 1640 medium supplemented with 10% FCS in the absence or presence of designated agents for 16 hrs in flat-bottom 96-well plates coated with a monoclonal antibody specific for mouse IFNγ (mouse IFNγ ELISPOT Kit, R & D System). The plates were then processed for in situ detection of IFNγ+ cells by ELISA following the manufacturer's procedure. Scanning and counting of IFNγ+ cells in the plates were accomplished using an automatic ELISPOT reader with Immunospot2 software (Cellular Technology Ltd). Mouse splenocytes were also untreated or treated with agents for 16 hrs in culture dishes and then stained with appropriate isotype control antibodies or FICT-labeled anti-CD3 monoclonal antibody (BD) plus PE-labeled monoclonal antibody (BD) for intracellular IFNγ following established procedures. The stained samples were washed 3 times, re-suspended in 200 μl of 1% para-formaldehyde solution and analyzed (20,000 cells/sample) using a BD FACS Caliburs cytometer and WinList software.
# The splenocytes were cultured in RPMI 1640 medium supplemented with 10% FCS in the absence or presence of designated agents for 16 hrs in flat-bottom 96-well plates coated with a monoclonal antibody specific for mouse IFNγ (mouse IFNγ ELISPOT Kit, R & D System). The plates were then processed for in situ detection of IFNγ+ cells by ELISA following the manufacturer's procedure. Scanning and counting of IFNγ+ cells in the plates were accomplished using an automatic ELISPOT reader with Immunospot2 software (Cellular Technology Ltd).
# B16 melanoma tumors [3] = test: B16 melanoma tumor growth in athymic nude mice; type: in vivo, mouse; settings: 3 mg/kg/day, oral, M-F/week
# Description: To assess L5 anti-tumor activity, C57BL/6J mice or athymic nude mice (˜8-week old, female, Taconic Farms, Germantown, N.Y.) were inoculated (s.c.) at the flanks with B16 melanoma cells (4×10^4 cells/site). Four days post-inoculation, the mice were treated with PBS (Control) or L5 (˜3 mg/kg body weight/daily, Monday—Friday/week, oral gavage). Tumor volume (n=5) was measured during the study period and calculated using the formula for a prolate spheroid. Student's t test was used for assessing the significance of tumor volume differences among differential treatment groups. Mouse viability (daily) and body weights (weekly) were also recorded during the study period. Major internal organs of the mice were inspected visually upon their termination at the end of the experiment.
# toxicity of L5 in mice = type: in vivo, mouse; settings: 10 mg/kg, daily, s.c., two weeks
# Description: FIG. 3 illustrates differential toxicity of L5 and L6. Jurkat cells were cultured in the absence or presence of lead compound #5 (L5) (A) or #6 (L6) (B) for 6 days prior to quantification of cell growth by MTT assays. Data represent mean ±SD of triplicate samples. Balb/c mice were treated with L5 (˜10 mg/kg body weight, s.c., daily, M-F/wk) for two weeks to assess its toxicity in vivo (C).
# Spleens were harvested one hour post-treatment on day 4 and processed into splenocytes, which were used for assessing pLck levels by SDS-PAGE/Western blotting and for quantification of IFNγ+ cells by ELISPOT assays. Mice were also treated with L5 (˜10 mg/kg body weight, daily, s.c., n=2) to evaluate the toxicity of the compounds in vivo.
# [4] = test system: IFNγ+ cells in human peripheral blood; test: induction of IFNγ+ cells in human peripheral blood in vitro (ELISPOT); type: cell-based
# Description: For induction of human primary IFNγ+ cells, heparinized peripheral blood samples were obtained by vein-puncture from healthy volunteers following an established protocol approved by the Institutional Review Board (IRB) of Cleveland Clinic. To mimic in vivo drug-exposure, human peripheral blood samples were directly treated with different agents without pre-separation of white blood cells from other blood components. Blood samples (0.1 ml/sample) were mixed with the agents, incubated at 37° C. for 4 hrs, diluted with 5 volumes of hypotonic solution (10 mM Tris, pH 7.4; 10 mM NaCl) to lyse RBC and centrifuged to pellet WBCs. The pellets were washed with hypotonic solution one time, re-suspended in RPMI 1640 medium (10% FCS) and used for ELISPOT assays (Human IFNγ ELISPOT Kit, R & D System) to quantify human IFNγ+ cells as outlined above.
# B16 melanoma tumors [5] = test: B16 melanoma tumor growth in C57BL/6J mice; type: in vivo
# Description: Tumor volume (n=5) was measured during the study period and calculated using the formula for a prolate spheroid. Student's t test was used for assessing the significance of tumor volume differences among differential treatment groups. Mouse viability (daily) and body weights (weekly) were also recorded during the study period. Major internal organs of the mice were inspected visually upon their termination at the end of the experiment.
# To assess anti-tumor activity, C57BL/6J mice (˜8-week old, female, Taconic Farms, Germantown, N.Y.) were inoculated (s.c.) at the flanks with B16 melanoma cells (4×10^4 cells/site). […] Tumor volume (n=5) was measured during the study period and calculated using the formula for a prolate spheroid. Student's t test was used for assessing the significance of tumor volume differences among differential treatment groups. Mouse viability (daily) and body weights (weekly) were also recorded during the study period. Major internal organs of the mice were inspected visually upon their termination at the end of the experiment.
# pERK1/2 in Jurkat cells = pERK1/2 in Jurkat cells (Western blotting); type: cell-based, human
# Description: as §1
# as §1, with “blotting as described previously (17, 18).” for “blotting.”
smiles,measurement,setting,value
O=C1C=CC(=O)C(c2cc(Cl)ccc2Cl)=C1 [L5],levels of pZap70 and pSlp76,"[1]; 0.01, 0.1, 1 or 3 μg/ml",obviously increased
same,pLAT,[1]; L5-treated Jurkat cells,induced pLAT
same,induction of IFNγ+ cells,[2]; 0.001 μg/ml (FIG. 11),inactive
same,increase of IFNγ+ cells in splenocytes,[2]; 1 μg/ml,~14 fold
same,increase of IFNγ+ cells in splenocytes,[2]; 3 μg/ml,~26 fold
same,increase of IFNγ+ cells in splenocytes,[2]; 10 μg/ml,~17 fold
same,increase of IFNγ+ cells in splenocytes,[2]; 30 μg/ml,~10 fold
same,induction of IFNγ+ cells,[2]; 0.01 to 1 μg/ml (FIG. 11A),effective
same,minimal effective dose for IFNγ+ cell induction,[2]; FIG. 11,10 ng/mL
same,induction of IFNγ+ cells,[2]; higher doses (FIG. 16B),induced significant IFNγ+ cells
same,induction of IFNγ+ cells,"[2]; low doses (0.01 to 1 μg/ml), splenocytes of the same mouse (FIG. 16B)",3-4 fold
same,effectiveness compared with SSG in inducing IFNγ+ cells,"[2]; maximal induction at a comparable dose, mouse splenocytes",~58 fold
same,B16 melanoma tumors in athymic nude mice,B16 melanoma tumors [3],not inhibited
same,viability of mice,toxicity of L5 in mice,all alive
same,maximal induction of IFNγ+ cells in human peripheral blood,[4]; 8 μg/ml,20 fold
same,effectiveness compared with SSG in inducing IFNγ+ cells,"[4]; maximal induction at a comparable dose, human peripheral blood",~20 fold
same,survival of treated mice,"B16 melanoma tumors [5]; 1 mg/kg daily, oral gavage",survived till the end of the study
same,abnormality in behavior or gross anatomy,"B16 melanoma tumors [5]; 3 mg/kg/day, oral",no apparent abnormality in behavior or gross anatomy
same,survival of treated mice,"B16 melanoma tumors [5]; 3 mg/kg/day, oral",survived until the end of the study
same,growth inhibition of B16 tumors vs control,"B16 melanoma tumors [5]; 3 mg/kg/day, oral, M-F/week, end of study",~83%
same,levels of pERK1/2,pERK1/2 in Jurkat cells; 1 μg/ml,reduced the levels of pERK1/2
same,effect on SHP-2 or CD45 phosphatases,pERK1/2 in Jurkat cells; 10-100 ng/ml in Jurkat cells,did not affect
same,levels of pERK1/2,pERK1/2 in Jurkat cells; lower doses (0.1 to 0.001 μg/ml),not at lower doses

# Source: patent US20080051464A1, “Protein phosphatase inhibitors” (The Cleveland Clinic Foundation, priority 2006, published 2008)
